# Results as given in US5852007A, “Cysteine and serine protease inhibitors containing D-amino acid at the P2 position, methods of making same, and methods of using same” (priority 1997, dated 1998).
# Where two headings read alike, the source gives them in different places. Square brackets hold non-standard residues; d marks the D form. Peptide text beside a SMILES is read from it. * marks the point of attachment. Abu = CC[C@H](N)C(=O)O; Bn = c1ccc(C*)cc1; Ms = CS(=O)(=O)*
# Key:
# Assay type in all cases: biochemical
# cathepsin L = target: T1, cathepsin L (Homo sapiens, UniProt P07711); assay: Inhibition of cathepsin L; settings: for inhibition at 1 µM / Cat L % I @ 1 uM: Table III; for inhibition at 1 µM: read-out: Cat L % I @ 1 uM; for IC50: Table II, read-out: Cat L IC50
# T1 construct: purchased Calbiochem 219402
# Experimental: (§1) Additionally,the order of reagents added to the plate was altered because both enzymes are constitutively active. Following inhibitor addition to the plates, appropriate 2× concentrated stock dilutions of the enzyme preparations were made in assay buffer and 100 μl added to each well. The assay was initiated by addition of 100 μl of 2× concentrated stock dilution of substrate in assay buffer.
# [1] = target: T2, Recombinant human calpain I (Homo sapiens, UniProt P07384); assay: Inhibition of calpain I activity
# T2 construct: made in house
# T2 sequence (P07384 1-714): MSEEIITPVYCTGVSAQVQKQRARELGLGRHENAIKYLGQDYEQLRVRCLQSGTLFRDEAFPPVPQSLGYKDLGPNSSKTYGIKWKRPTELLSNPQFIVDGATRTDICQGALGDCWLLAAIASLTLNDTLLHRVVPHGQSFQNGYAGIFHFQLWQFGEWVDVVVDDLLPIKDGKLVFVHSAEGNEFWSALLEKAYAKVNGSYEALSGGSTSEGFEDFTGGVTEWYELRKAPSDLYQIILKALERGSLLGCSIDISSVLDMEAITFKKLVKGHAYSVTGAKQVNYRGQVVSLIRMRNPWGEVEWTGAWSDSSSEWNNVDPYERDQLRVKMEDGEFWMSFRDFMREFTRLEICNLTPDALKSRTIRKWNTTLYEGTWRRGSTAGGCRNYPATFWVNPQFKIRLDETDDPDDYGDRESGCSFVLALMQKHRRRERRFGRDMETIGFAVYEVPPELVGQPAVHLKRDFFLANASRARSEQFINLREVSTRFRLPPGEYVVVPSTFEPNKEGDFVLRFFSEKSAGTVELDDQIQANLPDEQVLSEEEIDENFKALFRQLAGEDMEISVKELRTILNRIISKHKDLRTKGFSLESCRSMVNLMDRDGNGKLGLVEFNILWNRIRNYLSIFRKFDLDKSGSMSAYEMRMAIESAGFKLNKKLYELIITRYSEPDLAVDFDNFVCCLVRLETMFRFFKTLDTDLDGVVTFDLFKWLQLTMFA
# Experimental: To evaluate inhibitory activity, stock solutions (40 times concentrated) of exemplary compounds of the invention were prepared in 100% anhydrous DMSO and 5 μL of each inhibitor preparation were aliquoted into each of three wells of a 96-well plate. Recombinant human calpain I, prepared by the method of Meyer et al. (Biochem. […] To start the reaction, 20 μL of 50 mM CaCl2 in assay buffer was added to all wells of the plate, excepting three, which were used as background signal baseline controls. Substrate hydrolysis was monitored every 5 minutes for a total of 30 minutes. […] Inhibition of calpain I activity was calculated as the percent decrease in the rate of substrate hydrolysis in the presence of inhibitor (VI) relative to the rate in its absence (VO). Comparison between VO and VI was made within the linear range for substrate hydrolysis. For screening, compounds were tested at 10, 1.0, and 0.1 μM. […] The results were plotted as % inhibition versus log inhibitor concentration and the IC50 was calculated from linear regression of the data. Apparent second order rate constants were determined from analysis of reaction progress curves under pseudo-first order conditions. Each determination represents the means of three or more independent single cuvette analyses continually monitored via a Perkin-Elmer LS50B spectrofluorimeter. The rate of inhibition of hydrolysis was obtained by fitting the curve to the exponential equation (1): […]
# α-chymotrypsin = target: T3, α-chymotrypsin (Bos taurus, UniProt P00766); assay: Inhibition of α-chymotrypsin; settings: 10 uM; for inhibition at 10 µM: read-out: Chymotrypsin % I @ 10 uM
# T3 construct: purchased Sigma Chem. Co. C-3142
# Experimental: Additionally, because α-chymotrypsin is not a calcium sensitive enzyme and is constitutively active, following addition of inhibitor stocks to the 96 well plates, 100 μl of a 2-fold concentrated stock of enzyme in dilution buffer was first added and the reaction started by addition of 100 μl of a 2-fold concentrated stock of substrate in assay buffer. Substrate hydrolysis was monitored every 5 minutes up to 30 minutes using a Fluoroskan II ([…]).
# thrombin = target: T4, thrombin (Homo sapiens, UniProt P00734); assay: Inhibition of thrombin; settings: 10 uM; for inhibition at 10 µM: read-out: Thrombin % I @ 10 uM
# T4 construct: purchased Sigma Chem. Co. T-7009
# cathepsin B = target: T5, cathepsin B (Homo sapiens, UniProt P07858); assay: Inhibition of cathepsin B; settings: for inhibition at 1 µM: read-out: Cat B % I @ 1 uM; for IC50: read-out: Cat B IC50
# T5 construct: purchased Calbiochem 219364
# Experimental: as §1
# T1 sequence (P07711 114-288 limits assumed): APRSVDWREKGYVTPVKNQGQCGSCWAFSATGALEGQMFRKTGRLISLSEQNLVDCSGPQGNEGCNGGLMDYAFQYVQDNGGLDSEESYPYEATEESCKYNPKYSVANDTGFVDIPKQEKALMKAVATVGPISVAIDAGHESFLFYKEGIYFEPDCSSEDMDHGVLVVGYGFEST
# T1 sequence (P07711 292-333 limits assumed): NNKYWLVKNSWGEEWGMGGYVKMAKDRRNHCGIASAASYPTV
Structure (SMILES),inhibition at 1 µM (cathepsin L),IC50 ([1]; Table III),inhibition at 0.1 µM ([1]; Table III),inhibition at 1 µM (cathepsin B; Table III),inhibition at 10 µM (α-chymotrypsin; Table III),inhibition at 10 µM (thrombin; Table III),further results
"CS(=O)(=O)N1Cc2ccccc2CC1C(=O)N[C@H](C=O)Cc1ccccc1 (single isomer, unassigned) [Compound 95]",100%,278 nM,–,–,–,–,Calpain % I @ 0.1 uM ([1]; Table III): 17%; Chymotrypsin % I @ 10 uM (α-chymotrypsin; Table III): 0%; Thrombin % I @ 10 uM (thrombin; Table III): 1%; Cat B % I @ 1 uM (cathepsin B; Table III): 38%
"CS(=O)(=O)N1Cc2ccccc2CC1C(=O)N[C@H](C=O)Cc1ccccc1 (single isomer, unassigned) [Compound 96]",–,174 nM,–,–,–,–,Cat L % I @ 1 uM (cathepsin L): 100%; Calpain % I @ 0.1 uM ([1]; Table III): 49%; Chymotrypsin % I @ 10 uM (α-chymotrypsin; Table III): 14%; Thrombin % I @ 10 uM (thrombin; Table III): 0%; Cat B % I @ 1 uM (cathepsin B; Table III): 90%
"CS(=O)(=O)NC(CCSCc1ccccc1)C(=O)N[C@H](C=O)Cc1ccccc1 (single isomer, unassigned) [Compound 107]",100%,67 nM,63%,97%,–,–,Chymotrypsin % I @ 10 uM (α-chymotrypsin; Table III): 11%; Thrombin % I @ 10 uM (thrombin; Table III): 2%
"CS(=O)(=O)NC(CCSCc1ccccc1)C(=O)N[C@H](C=O)Cc1ccccc1 (single isomer, unassigned) [Compound 108]",–,25 nM,–,–,–,–,Cat L % I @ 1 uM (cathepsin L): 100%; Calpain % I @ 0.1 uM ([1]; Table III): 83%; Chymotrypsin % I @ 10 uM (α-chymotrypsin; Table III): 0%; Thrombin % I @ 10 uM (thrombin; Table III): 0%; Cat B % I @ 1 uM (cathepsin B; Table III): 96%
"CC(C)(C)OC(=O)N[C@H](CC(=O)N1CCc2ccccc2C1)C(=O)N[C@H](C=O)Cc1ccccc1 [Compound 8, (R)-2-THIQ-C(=O)CH2 CH(NHBoc)C(=O)-Phe--H]",–,–,–,–,–,–,IC50 (cathepsin L): 24000 nM; IC50 ([1]; Table II): ~20000 nM; inhibition at 10 µM (α-chymotrypsin; Table II): 32%; inhibition at 10 µM (thrombin; Table II): 0%
"CC(=O)N[C@H](CC(=O)N1CCc2ccccc2C1)C(=O)N[C@H](C=O)Cc1ccccc1 [Compound 9, 2-THIQ-C(=O)CH2 CH(NHC(=O)CH3)C(=O)-Phe--H]",–,–,–,–,–,–,IC50 (cathepsin L): 2000 nM; IC50 ([1]; Table II): 83 nM; inhibition at 10 µM (α-chymotrypsin; Table II): 2%; inhibition at 10 µM (thrombin; Table II): 0%; IC50 (cathepsin B; Table II): 11000 nM
"CS(=O)(=O)N[C@H](CC(=O)N1CCc2ccccc2C1)C(=O)N[C@H](C=O)Cc1ccccc1 [Compound 14, 2-THIQ-C(=O)CH2 CH(NHS(=O)2 CH3)C(=O)-Phe--H]",–,–,–,–,–,–,IC50 (cathepsin L): 56 nM; IC50 ([1]; Table II): 20 nM; inhibition at 10 µM (α-chymotrypsin; Table II): 11%; inhibition at 10 µM (thrombin; Table II): 0%; IC50 (cathepsin B; Table II): 145 nM
"CC(=O)N[C@H](CSCc1ccccc1)C(=O)N[C@H](C=O)Cc1ccccc1 [Compound 25, BnS--CH2 CH(NHC(=O)CH3)C(=O)-Phe--H] (Ac-[dC](Bn)-Phe-aldehyde)",–,–,–,–,–,–,IC50 (cathepsin L): 48 nM; IC50 ([1]; Table II): 26 nM; inhibition at 10 µM (α-chymotrypsin; Table II): 3%; inhibition at 10 µM (thrombin; Table II): 0%; IC50 (cathepsin B; Table II): 5000 nM
CC[C@@H](C=O)NC(=O)[C@@H](COCc1ccccc1)NS(C)(=O)=O [Compound 41] (Ms-[dS](Bn)-[Abu]-aldehyde),100%,50 nM,67%,42%,0%,2%,–
CC(=O)N[C@H](COCc1ccccc1)C(=O)N[C@H](C=O)Cc1ccccc1 [Compound 42],96%,17 nM,87%,90%,14%,7%,–
C[C@H](OCc1ccccc1)[C@@H](NS(C)(=O)=O)C(=O)N[C@H](C=O)Cc1ccccc1 [Compound 43] (Ms-[dT](Bn)-Phe-aldehyde),68%,12 nM,95%,98%,3%,0%,IC50 (cathepsin B; Table III): 58 nM
O=C[C@H](Cc1ccccc1)NC(=O)[C@@H](COCc1ccccc1)NC(=O)c1ccccc1 [Compound 44],100%,280 nM,29%,62%,0%,7%,–
O=C[C@H](Cc1ccccc1)NC(=O)[C@@H](COCc1ccccc1)NC(=O)C(c1ccccc1)c1ccccc1 [Compound 45],100%,85 nM,55%,100%,5%,7%,–
O=C[C@H](Cc1ccccc1)NC(=O)[C@@H](COCc1ccccc1)NS(=O)(=O)c1ccc(F)cc1 [Compound 46],100%,24 nM,90%,100%,6%,15%,–
CN(C)S(=O)(=O)N[C@H](COCc1ccccc1)C(=O)N[C@H](C=O)Cc1ccccc1 [Compound 47],98%,9 nM,91%,96%,2%,6%,–
O=C[C@H](Cc1ccccc1)NC(=O)[C@@H](COCc1ccccc1)NS(=O)(=O)c1ccccc1 [Compound 48],100%,31 nM,87%,99%,0%,3%,IC50 (cathepsin B; Table III): 11 nM
Cn1cnc(S(=O)(=O)N[C@H](COCc2ccccc2)C(=O)N[C@H](C=O)Cc2ccccc2)c1 [Compound 63],100%,75 nM,41%,–,40%,1%,–
CC(C)C[C@@H](C=O)NC(=O)[C@@H](CC(C)C)NS(C)(=O)=O [Compound 87],96%,95 nM,23%,86%,–,–,–
